Experimental data: patent US8778899B2, “Methods of inducing regulated pancreatic hormone production in non-pancreatic islet tissues” (priority 1999, dated 2014)

Legend:
human liver cells = assay: Quantitative real-time RT-PCR gene expression in human liver cells; assay type: cell-based; settings: without PDX-1
Procedure: Liver cells were cultured in Dulbecco's minimal essential medium (1 gr/L glucose) with or without growth factors as indicated separately (EGF 20 ng/ml, Cytolab Ltd.; Nicotinamide 10 mM, Sigma), and were infected by recombinant adenoviruses (500 moi) for 5 days. The recombinant adenoviruses used in this study: Ad-RIP-GFP-CMV-PDX-1, Ad-CMV-PDX-1, Ad-CMV-hIns^40, Ad-CMV-GFP (Clontech, BD Biosciences).
Alternatively, quantitative real-time RT-PCR, was performed using ABI Prism 7000 sequence Detection system (Applied Biosystems).
Amplification conditions included initiation at 50° C. for 2 minutes, denaturation at 95° C. for 10 minutes, followed by 40 cycles, each cycle included denaturation at 95° C. for 15 seconds and annealing at 60° C. for 1 minute, using the TaqMan PCR Master Mix (Applied Biosystems). Relative quantitative analysis was according to ABI prism 7000 SDS software, using the 2^(−ΔCt) equation. The mRNA levels were corrected for human β-actin mRNA.

adult human liver cells = assay: Glucose challenge assay; assay type: cell-based; settings: 0-25 mM, 2 hours
Procedure: Adult liver cells were treated with Ad-CMV-PDX-1 and growth factors for 5 days. The cells were plated in 6-well plates at 10^5 cells per well.
For time course analysis the cells were preincubated for 2 hours in Krebs-Ringer buffer (KRB) containing 0.1% BSA, followed by incubation for the indicated period in media containing 2 mM or 25 mM glucose. At each time point media samples were analyzed for insulin (Ultra Sensitive Human Insulin RIA kit—Linco Research) and C-peptide secretion (Human C-Peptide RIA kit—Linco Research).
Glucose dose response; Cells were preincubated for 2 hours with KRB containing 0.1% BSA, washed and challenged thereafter with increasing concentrations of D-Glucose or 2-deoxy-Glucose (0-25 mM) for 2 hours. At the end of the incubation period at 25 mM glucose, the cells were washed with KRB and incubated for additional 2 hours in 2 mM glucose containing media.

Molecule	PDX-1 independent effect on pancreatic gene expression (human liver cells)	C-peptide secretion in transdifferentiated liver cells (adult human liver cells)
EGF: epidermal growth factor, soluble factor added to liver cell cultures (NSDSECPLSHDGYCLHDGVCMYIEALDKYACNCVVGYIGERCQYRDLKWWELR; UniProt P01133 971-1023, looked up)	Neither nicotinamide nor EGF alone or their combination exhibited PDX-1 independent effect	–
O=CC[C@@H](O)[C@H](O)[C@H](O)CO [2-DOG, 2-deoxy-glucose]	–	did not trigger C-peptide secretion
NC(=O)c1cccnc1 [nicotinamide]	Neither nicotinamide nor EGF alone or their combination exhibited PDX-1 independent effect	–
